Test results from patent publication US12152012B2, “BRAG2 inhibitors and applications thereof” (CENTRE NATIONAL DE LA RECHERCHE SCIENTIFIQUE, priority 2018, dated 2024).

What was measured:
ARNO (Sec7PH construct) = target: T1, ARNO (Sec7PH construct) (Homo sapiens, UniProt Q99418); test: Nucleotide exchange kinetics on liposomes, activation of myristoylated Arf1; format: biochemical; details: 50 μM
T1 construct: BIG1^DcbHusSec7 (2-888) and ARNO^Sec7PH (50-399); made in house
T1 sequence (Q99418 50-399 isoform Q99418-2): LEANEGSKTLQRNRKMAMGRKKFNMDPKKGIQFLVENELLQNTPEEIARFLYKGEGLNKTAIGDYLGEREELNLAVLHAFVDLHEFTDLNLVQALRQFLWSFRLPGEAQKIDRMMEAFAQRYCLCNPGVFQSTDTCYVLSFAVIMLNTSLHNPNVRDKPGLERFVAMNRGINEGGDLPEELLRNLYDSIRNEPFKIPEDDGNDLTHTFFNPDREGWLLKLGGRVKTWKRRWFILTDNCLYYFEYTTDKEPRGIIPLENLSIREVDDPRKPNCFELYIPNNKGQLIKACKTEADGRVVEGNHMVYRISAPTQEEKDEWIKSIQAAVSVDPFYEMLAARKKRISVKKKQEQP

[1] = Stability of DMSO stock solution (1H-NMR); format: physicochemical; details: kept in DMSO for several months

Effect on ArfGEF activity on liposomes (ARNO (Sec7PH construct)): no effect
Stability in DMSO stock solution by 1H-NMR [1]: completely decomposed
SMILES: Cc1ccc2oc(C(F)(F)F)cc(=O)c2c1[N+](=O)[O-] [Bragsin1, 6-methyl-5-nitro-2-(trifluoromethyl)-4H-chromen-4-one]
